Data published in patent US20060223877A1, “Methods of treatment utilizing certain melatonin derivatives” (priority 2005, published 2006).

Legend:
[1] = test system: subjects fed a high-fat diet; details: daily administration, Pruet-Marcassus et al., 2003; cited from earlier work
[2] = test system: middle-aged male rats; details: cited from earlier work
[3] = test system: patients with a diagnosis of migraine with or without aura; details: daily treatment; Peres et al., 2004; cited from earlier work
[4] = test system: patients with a diagnosis of fibromyalgia; details: cited from earlier work
[5] = test system: humans; details: 20 mg to 100 mg per day, Zemlan et al., 2005; cited from earlier work
[6] = test system: male Sprague-Dawley rats; assay: open field test; assay type: in vivo; details: for rearing behavior compared to vehicle controls: FIG. 1; for immobility compared to controls: FIG. 2
Method: Subjects were male Sprague-Dawley rats weighing 250-300 g housed in a temperature- and humidity-controlled vivarium on a 12:12 hr light:dark cycle with food and water available ad libitum. Behavioral testing occurred 2 hrs after lights out. […] All treatments were administered to an animal once (no repeat drug administration) with 8 animals per treatment. The open filed testing procedure has been previously described (Herman et al., 2003). Briefly, the open field apparatus is a 36×36-inch white PLEXIGLAS® enclosure, divided into 36 squares of equal size. Animals are placed into the apparatus and allowed to explore the environment for 5 min. Sessions are videotaped and scored for behavior by an investigator blinded to the treatment condition. Behavior is scored for the two primary outcome measures: rearing and immobility, as well as grooming; and secondary measures of sedation: total mobility and quadrant crossing.

[7] = test system: melatonin receptors; details: Mulchahey, et al., 2004; cited from earlier work
[8] = test system: TBI rats; assay: traumatic brain injury, controlled cortical impact model; assay type: in vivo; details: 10 mg/kg intraperitoneally, two doses (15 minutes and 24 hours after TBI), Day 7 morphometry, P=0.01, FIG. 3
From the text: Subjects were male Sprague-Dawley rats weighing 250-300 g housed in a temperature- and humidity-controlled vivarium on a 12:12 hr light:dark cycle with food and water available ad libitum. Animals were subjected to TBI using controlled cortical impact model. (Sullivan et al. 2000a). Animals were anesthetized and their brain cortex exposed. Employing a pneumatically-controlled impactor rod with a 5 mm diameter beveled tip, one of the cortices was compressed at 3.5 m/sec to a predetermined depth of 1.5 mm, resulting in TBI. The other cortex was not injured and left intact. Following the experimental TBI protocol, the animals were randomly divided into two groups and were either treated with vehicle or 10 mg/kg of β-methyl-6-chloromelatonin intraperitoneally (two doses; first dose 15 minutes after TBI and the second 24 hours later). The animals were allowed to recover for 168 hours (seven days). On Day 7, quantitative morphometric image analysis was employed to assess cortical tissue damage. Quantitative morphometry is considered to be the “gold standard” for assessing neuroprotectant drug efficacy in TBI (Sullivan et al., 1999; Sullivan et al., 2000a; Sullivan et al., 2000b).

[9] = test system: TNF-α stimulated EOC-20 cells; assay: nitrite and PGE2 in TNF-α stimulated EOC-20 microglial cells; assay type: cell-based; details: 20 ng/ml TNF-α-stimulated EOC-20 cells, dose-dependent manner
From the text: The compounds of the present invention are effective in treating neurodegenerative diseases, such as amyotrophic lateral sclerosis (ALS), Alzheimer's disease (AD), Huntington's disease (HD) and Parkinson's disease (PD).
The experiments consisted of treating TNF-α stimulated EOC-20 cells with increasing concentrations of β-methyl-6-chloromelatonin followed by measuring neuroinflammation-associated markers. Neuroinflammation activates microglia to produce proinflammatory cytokines, reactive oxygen species (ROS) and reactive nitrogen species (RNS) in ALS, AD, HD and PD-associated pathophysiology (Deckel, 2001; Cacquevel, 2004; McGeer and McGeer, 2004; Sargsyanet al., 2005). Increase in prostaglandin (PGE2), a potent inflammatory mediator, and nitrite, an indirect measure of RNS production, indicates inflammation-induced neurodegeneration in ALS, AD, HD and PD patients (Milstien et al., 1994; Tohgi et al., 1999; Deckel, 2001 ;Cacquevel, 2004).

[10] = test system: IHI mice; assay: ischemia-hypoxia injury (IHI) model of cerebrovascular disease; assay type: in vivo; details: 10 and 100 mg/kg intraperitoneally 30 minutes before and 30 minutes after hypoxia, Day 3, dose-dependent, FIG. 6
Method: Subjects were 8-12 week old adult male C57B116 mice housed in a temperature- and humidity-controlled vivarium on a 12:12 hr light:dark cycle with food and water available ad libitum. The mice were subjected to ischemia-hypoxia injury (IHI). The injury was rendered by permanently occluding the right common carotid artery and delivering hypoxic gas (7.5% O2) for 30 minutes employing a gas mask under anesthesia. The animal's body temperature was maintained at 36.5-37.5° C. throughout the experiment. For drug efficacy studies, β-methyl-6-chloro-melatonin was administered intraperitoneally 30 minutes before and 30 minutes after hypoxia at doses of 0 (vehicle only), 10 and 100 mg/kg. On Day 3 after injury, quantitative morphometric image analysis was employed to assess infarction size in Nissl-stained brain sections isolated from the animals. β-methyl-6-chloromelatonin administration caused a 33-40% reduction in brain infarct size in IHI mice compared to vehicle-treated IHI mice (FIG. 6). The protection conferred by β-methyl-6-chloromelatonin was dose-dependent.

[11] = 10 mg/kg i.p. 1 hr prior to open field testing
[12] = 100 mg/kg i.p. 1 hr prior to open field testing
[13] = 10 and 100 mg/kg i.p., P values>0.10

Compound | body weight [1] | body weight ([2]; daily treatment, middle-aged obesity, Rasmussen et al., 1999) | fat content ([2]; middle-age obesity, as opposed to lean body mass) | headache frequency [3] | headache intensity [3] | core symptoms of fibromyalgia (severity of pain, tender point count, patient and physician ratings) ([4]; 20 patients treated for 30 days, Citera et al., 2000) | patient-reported improvement including lack of pain and fatigue ([4]; daily treatment, end of treatment, Acuna-Castroviejo et al., 2006) | side effects compared to placebo treatment [5] | rearing behavior compared to vehicle controls [6, 11] | immobility compared to controls [6, 11] | rearing behavior compared to vehicle controls [6, 12] | immobility compared to controls [6, 12] | sedative effect: quadrant crossings [6, 13] | sedative effect: total mobility [6, 13] | binding to melatonin receptors [7] | reduction in damaged cortical tissue compared to vehicle-treated TBI rats [8] [%] | nitrite production ([9]; P<0.01, FIG. 4) | increase in PGE2 levels ([9]; P<0.01, FIG. 5) | reduction in brain infarct size compared to vehicle-treated IHI mice [10]
COc1ccc2[nH]cc(CCNC(C)=O)c2c1 [melatonin] | significantly decreased | significantly decreased | significant decrease | significant decrease | decrease | Significant improvement | significant improvement |  |  |  |  |  |  |  |  |  |  |  | 
COc1cc2c([C@@H](C)CNC(C)=O)c[nH]c2cc1Cl [β-methyl-6-chloromelatonin, (R)-N-[2-(6-chloro-5-methoxy-1H-indol-3-yl)propyl]acetamide] |  |  |  |  |  |  |  | no significant side effects | significantly increased | significantly decreased | significantly increased | significantly decreased | no significant drug effect | no significant drug effect | high affinity | 68 | blocked | blocked | 33-40%
